Patent publication US9227971B2, “Pyrazolo[1,5-a]pyrimidine compounds as mTOR inhibitors” (Merck Sharp & Dohme Corp., priority 2010, dated 2016)
Where two headings read alike, the source gives them in different places.

What was measured:
[1] = system: phosphorylated 4E-BP1 Thr37/46 (p4E-BP1 Thr37/46), mTORC1 activity, PC3 cells; assay: mTOR target engagement assay, immunofluorescent cell-based, p4E-BP1 Thr37/46 readout (mTORC1 activity); conditions: read-out: p4E-BP1 Thr37/46 IC50
How it was run: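 Cell-based immunofluorescence in PC3 cells: serially diluted compounds (0.25% DMSO, 5% FBS) applied for ninety minutes at 37° C before fixation and overnight 4° C staining of p4E-BP1 Thr37/46. Untreated DMSO wells set maximal phosphorylation; IC50 obtained by logistic fitting.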

[2] = system: phosphorylated AKT Ser473 (pAKT S473), mTORC2 activity, PC3 cells; assay: mTOR target engagement assay, immunofluorescent cell-based, pAKT S473 readout (mTORC2 activity)
How it was run: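 After blocking, cells were stained overnight at 4 °C with anti-pAKT S473 antibody, then a fluorescent secondary; inhibition was read as reduced fluorescence intensity.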

[3] = Homo sapiens, PC-3, Table 7-9 (no column head printed; column order as in the neighbouring tables), PC3 cells
[4] = Homo sapiens, PC-3, PC3 cells, compound treatment ninety minutes at 37° C.
[5] = Homo sapiens, PC-3, Table 3-1, PC3 cells
[6] = Homo sapiens, PC-3, Table 7-8, PC3 cells

Q: How did the IC50 ([1]; Table 3-1, PC3 cells) turn out when `CC(=O)N1[C@@H]2CC[C@H]1C[C@H](c1nc3c(-c4ccc(-c5ncc(C)s5)nc4)cnn3c(N)c1S(C)(=O)=O)C2` [Compound 3.182, 1-((1R,3s,5S)-3-(7-amino-6-(methylsulfonyl)-3-(6-(5-methylthiazol-2-yl)pyridin-3-yl)pyrazolo[1,5-a]pyrimidin-5-yl)-8-azabicyclo[3.2.1]octan-8-yl)ethanone] was run?
A: The IC50 was 0.1 to 1 µM.

Q: What about the IC50 ([2]; Table 3-1, PC3 cells) of the same compound?
A: The IC50 was 0.1 to 1 µM.

Q: For `CC(=O)c1c([C@@H]2C[C@H]3CC[C@@H](C2)N3C(=O)c2nnc[nH]2)nc2c(-c3ccc(C(O)CO)nc3)cnn2c1N` (stereo partly drawn) [Compound 7.52, 1-(5-((1R,3s,5S)-8-(4H-1,2,4-triazole-3-carbonyl)-8-azabicyclo[3.2.1]octan-3-yl)-7-amino-3-(6-(1,2-dihydroxyethyl)pyridin-3-yl)pyrazolo[1,5-a]pyrimidin-6-yl)ethanone], which IC50 [1, 3] is on record?
A: The IC50 was 1 to 10 µM.

Q: What about the IC50 [2, 3] of the same compound?
A: The IC50 was 1 to 10 µM.

Q: What does the source list for `CC(=O)c1c([C@@H]2C[C@H]3CC[C@@H](C2)N3C(=O)CO)nc2c(-c3cnc(C(C)(C)O)c(C)c3)cnn2c1N` [Compound 7.23, 1-((1R,3s,5S)-3-(6-acetyl-7-amino-3-(6-(2-hydroxypropan-2-yl)-5-methylpyridin-3-yl)pyrazolo[1,5-a]pyrimidin-5-yl)-8-azabicyclo[3.2.1]octan-8-yl)-2-hydroxyethanone]?
A: IC50 [1, 4]: 0.1 to 1 µM; IC50 [2, 4]: 0.1 to 1 µM

Q: For `CC(=O)c1c([C@@H]2C[C@H]3CC[C@@H](C2)N3C(=O)CO)nc2c(-c3ccc(C)nc3)cnn2c1N` [Compound 1.1.90, 1-((1R,3s,5S)-3-(6-acetyl-7-amino-3-(6-methylpyridin-3-yl)pyrazolo[1,5-a]pyrimidin-5-yl)-8-azabicyclo[3.2.1]octan-8-yl)-2-hydroxyethanone], which IC50 [1, 4] is on record?
A: Its IC50 is 1 to 10 µM.

Q: And the IC50 [2, 4]?
A: Its IC50 is 1 to 10 µM.

Q: For `CS(=O)(=O)c1c([C@@H]2C[C@H]3CC[C@@H](C2)N3C(=O)c2cc(CO)n[nH]2)nc2c(-c3ccc(-c4ccccc4)nc3)cnn2c1N` [Compound 3.84, ((1R,3s,5S)-3-(7-amino-6-(methylsulfonyl)-3-(6-phenylpyridin-3-yl)pyrazolo[1,5-a]pyrimidin-5-yl)-8-azabicyclo[3.2.1]octan-8-yl)(3-(hydroxymethyl)-1H-pyrazol-5-yl)methanone], which IC50 [1, 5] is on record?
A: The IC50 was 0.1 to 1 µM.

Q: What about the IC50 [2, 5] of the same compound?
A: The IC50 was 0.001 to 0.1 µM.

Q: `CC(=O)c1c([C@@H]2C[C@H]3CC[C@@H](C2)N3C(=O)c2nnc[nH]2)nc2c(-c3cnc(C(C)O)s3)cnn2c1N` (stereo partly drawn) [Compound 7.36, 1-(5-((1R,3s,5S)-8-(4H-1,2,4-triazole-3-carbonyl)-8-azabicyclo[3.2.1]octan-3-yl)-7-amino-3-(2-(1-hydroxyethyl)thiazol-5-yl)pyrazolo[1,5-a]pyrimidin-6-yl)ethanone] was tested. Which IC50 [1, 4] did it give?
A: Its IC50 is 1 to 10 µM.

Q: And the IC50 [2, 4]?
A: Its IC50 is 1 to 10 µM.

Q: `CS(=O)(=O)c1c([C@@H]2C[C@H]3CC[C@@H](C2)N3C=O)nc2c(-c3ccc(-c4ccccc4)nc3)cnn2c1N` [Compound 3.19, (1R,3s,5S)-3-(7-amino-6-(methylsulfonyl)-3-(6-phenylpyridin-3-yl)pyrazolo[1,5-a]pyrimidin-5-yl)-8-azabicyclo[3.2.1]octane-8-carbaldehyde] was tested. Which IC50 [1, 5] did it give?
A: Its IC50 is 0.1 to 1 µM.

Q: What about the IC50 [2, 5] of the same compound?
A: The IC50 was 0.1 to 1 µM.

Q: Which IC50 [1, 4] does the source give for `CC(=O)c1c([C@@H]2C[C@H]3CC[C@@H](C2)N3C(=O)CO)nc2c(-c3ccc(-c4n[nH]c(C)c4F)nc3)cnn2c1N` [Compound 1.11..107, 1-((1R,3s,5S)-3-(6-acetyl-7-amino-3-(6-(4-fluoro-5-methyl-1H-pyrazol-3-yl)pyridin-3-yl)pyrazolo[1,5-a]pyrimidin-5-yl)-8-azabicyclo[3.2.1]octan-8-yl)-2-hydroxyethanone] here?
A: Its IC50 is 0.1 to 1 µM.

Q: And the IC50 [2, 4]?
A: Its IC50 is 0.1 to 1 µM.

Q: How did the IC50 ([1]; Table 3-1, PC3 cells) turn out when `CS(=O)(=O)c1c([C@@H]2C[C@H]3CC[C@@H](C2)N3C(=O)c2nnc[nH]2)nc2c(-c3ccc(-c4ccc(OCF)cc4)nc3)cnn2c1N` [Compound 3.63, ((1R,3s,5S)-3-(7-amino-3-(6-(4-(fluoromethoxy)phenyl)pyridin-3-yl)-6-(methylsulfonyl)pyrazolo[1,5-a]pyrimidin-5-yl)-8-azabicyclo[3.2.1]octan-8-yl)(4H-1,2,4-triazol-3-yl)methanone] was run?
A: The IC50 was 0.001 to 0.1 µM.

Q: And the IC50 ([2]; Table 3-1, PC3 cells)?
A: The IC50 was 0.001 to 0.1 µM.

Q: Which results are given for `Cc1cnc(-c2ccc(-c3cnn4c(N)c(S(C)(=O)=O)c([C@@H]5C[C@H]6CC[C@@H](C5)N6C(=O)C5(O)CC5)nc34)cn2)s1` [Compound 3.186, ((1R,3s,5S)-3-(7-amino-6-(methylsulfonyl)-3-(6-(5-methylthiazol-2-yl)pyridin-3-yl)pyrazolo[1,5-a]pyrimidin5-yl)-8-azabicyclo[3.2.1]octan-8-yl)(1-hydroxycyclopropyl)methanone]?
A: IC50 [1, 5]: 1 to 10 µM; IC50 [2, 5]: 1 to 10 µM

Q: Which IC50 [1, 6] does the source give for `CC(=O)c1c([C@@H]2C[C@H]3CC[C@@H](C2)N3C(=O)c2nnc[nH]2)nc2c(-c3ccc(C4(O)CCCC4)nc3)cnn2c1N` [Compound 7.50, 1-(5-((1R,3s,5S)-8-(4H-1,2,4-triazole-3-carbonyl)-8-azabicyclo[3.2.1]octan-3-yl)-7-amino-3-(6-(1-hydroxycyclopentyl)pyridin-3-yl)pyrazolo[1,5-a]pyrimidin-6-yl)ethanone] here?
A: Its IC50 is 0.001 to 0.1 µM.

Q: And the IC50 [2, 6]?
A: Its IC50 is 0.001 to 0.1 µM.

Q: For `CCNC(=O)N1[C@@H]2CC[C@H]1C[C@H](c1nc3c(-c4ccc(-c5ccccc5)nc4)cnn3c(N)c1S(C)(=O)=O)C2` [Compound 3.8, (1R,3s,5S)-3-(7-amino-6-(methylsulfonyl)-3-(6-phenylpyridin-3-yl)pyrazolo[1,5-a]pyrimidin-5-yl)-N-ethyl-8-azabicyclo[3.2.1]octane-8-carboxamide], which IC50 [1, 5] is on record?
A: The IC50 was 0.1 to 1 µM.

Q: And the IC50 [2, 5]?
A: Its IC50 is 0.1 to 1 µM.

Q: Which IC50 [1, 4] does the source give for `CC(=O)c1c([C@@H]2C[C@H]3CC[C@@H](C2)N3C(=O)CO)nc2c(-c3ccc(-c4cccc(F)c4)nc3)cnn2c1N` [Compound 1.1.105, 1-((1R,3r,5S)-3-(6-acetyl-7-amino-3-(6-(3-fluorophenyl)pyridin-3-yl)pyrazolo[1,5-a]pyrimidin-5-yl)-8-azabicyclo[3.2.1]octan-8-yl)-2-hydroxyethanone] here?
A: The IC50 was 0.1 to 1 µM.

Q: What about the IC50 [2, 4] of the same compound?
A: The IC50 was 0.1 to 1 µM.

Q: Which IC50 [1, 5] does the source give for `CS(=O)(=O)c1c([C@@H]2C[C@H]3CC[C@@H](C2)N3C(=O)[C@H](O)CO)nc2c(-c3ccc(-c4ccccc4)nc3)cnn2c1N` [Compound 3.7, (R)-1-((1R,3S,5S)-3-(7-amino-6-(methylsulfonyl)-3-(6-phenylpyridin-3-yl)pyrazolo[1,5-a]pyrimidin-5-yl)-8-azabicyclo[3.2.1]octan-8-yl)-2,3-dihydroxypropan-1-one] here?
A: Its IC50 is 1 to 10 µM.

Q: And the IC50 [2, 5]?
A: The IC50 was 0.1 to 1 µM.

Q: `Nc1cc([C@@H]2C[C@H]3CC[C@@H](C2)N3C(=O)CO)nc2c(-c3ccc(-c4ccccc4)nc3)cnn12` [Compound 2.8, 1-((1R,3s,5S)-3-(7-amino-3-(6-phenylpyridin-3-yl)pyrazolo[1,5-a]pyrimidin-5-yl)-8-azabicyclo[3.2.1]octan-8-yl)-2-hydroxyethanone] was tested. Which IC50 [1, 4] did it give?
A: The IC50 was 1 to 10 µM.

Q: What about the IC50 [2, 4] of the same compound?
A: The IC50 was 0.1 to 1 µM.

Q: `CC(=O)c1c([C@@H]2C[C@H]3CC[C@@H](C2)N3C(=O)c2nnc[nH]2)nc2c(-c3cnc(-c4ccccc4)nc3)cnn2c1N` [Compound 1.1.179, 1-(5-((1R,3s,5S)-8-(4H-1,2,4-triazole-3-carbonyl)-8-azabicyclo[3.2.1]octan-3-yl)-7-amino-3-(2-phenylpyrimidin-5-yl)pyrazolo[1,5-a]pyrimidin-6-yl)ethanone] was tested. Which IC50 [1, 4] did it give?
A: The IC50 was 0.001 to 0.1 µM.

Q: And the IC50 [2, 4]?
A: Its IC50 is 0.001 to 0.1 µM.
